The supplement of paper PMC11208160
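Further: IS621 bridge recombinase in Escherichia coli cells against a fixed T5 target plasmid.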

Assay: recombinant UMI read abundance after kanamycin selection (control-corrected) (log10(CPM+1)); higher = more efficient recombination; extreme values may be limits of the assay; sequences stand for … in AGTGCAGAGAAAATCGGCCAGTTTTCTCTGCCTGCAGTCCGCATGCCGTGGGACCCCTTGGGTTCTAACCTGTTGCCTAGATTTATGCAGCGGACTGCCTTTCTCCCAAAGTGATAAACCGG…AGGTTGGTTTCACT; site = the 11-nt donor
Outline: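 In Escherichia coli, a pool of donor and donor-binding-loop pairs, each with a 12-nt UMI, was tested for the IS621 bridge recombinase. Plating was on IPTG (0.07 mM) plus kanamycin, or without selection, in two replicates. Recombinant UMIs were amplified by PCR across the donor–target junction and sequenced, and counts were reported as log10(CPM+1) after averaging and control-derived scaling.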
For “TGAAAGACATGGACCGGTTTTCCCGGTAATCCGTATTTGCA (site TGAAAGACTTG)”, the “recombinant UMI read abundance (log10)” value was 2.45.
In the case of “TGAACACCATGGACCGGTTTTCCCGGTAATCCGTATTTGAC (site TGAACACCTGT)”, the “recombinant UMI read abundance (log10)” value is reported as 0.
With “TGAACACCATGGACCGGTTTTCCCGGTAATCCGTATTTGAC (site TGCACACCTGT)” the “recombinant UMI read abundance (log10)” value was 0.
In the case of “TGAACACCATGGACCGGTTTTCCCGGTAATCCGTATTTGAC (site TGGACACCTGT)”, the “recombinant UMI read abundance (log10)” value is reported as 0.
In the case of “TGAACACCATGGACCGGTTTTCCCGGTAATCCGTATTTGAC (site TGTACACCTGT)”, the “recombinant UMI read abundance (log10)” value is reported as 0.
With “TGAAGAGCATGGACCGGTTTTCCCGGTAATCCGTATTTGCA (site TGAAGAGCTTG)” the “recombinant UMI read abundance (log10)” value was 2.54.
With “TGAAGCGCATGGACCGGTTTTCCCGGTAATCCGTATTTGCT (site TGAAGCGCTAG)” the “recombinant UMI read abundance (log10)” value was 2.01.
For “TGAATACCATGGACCGGTTTTCCCGGTAATCCGTATTTGTG (site TGAATACCTCA)”, the “recombinant UMI read abundance (log10)” value was 0.0076.
With “TGACATTCATGGACCGGTTTTCCCGGTAATCCGTATTTGCT (site TGACATTCTAG)” the “recombinant UMI read abundance (log10)” value was 1.97.
With “TGACCTCCATGGACCGGTTTTCCCGGTAATCCGTATTTGAA (site TGACCTCCTTT)” the “recombinant UMI read abundance (log10)” value was 0.019.
In the case of “TGACTATCATGGACCGGTTTTCCCGGTAATCCGTATTTGTA (site TGACTATCTTA)”, the “recombinant UMI read abundance (log10)” value is reported as 2.58.
For “TGACTCACATGGACCGGTTTTCCCGGTAATCCGTATTTGAC (site TGACTCACTGT)”, the “recombinant UMI read abundance (log10)” value was 2.68.
With “TGAGAGGCATGGACCGGTTTTCCCGGTAATCCGTATTTGTA (site TGAGAGGCTTA)” the “recombinant UMI read abundance (log10)” value was 2.3.
For “TGAGATACATGGACCGGTTTTCCCGGTAATCCGTATTTGAG (site TGAGATACTCT)”, the “recombinant UMI read abundance (log10)” value was 2.26.
For “TGAGGACCATGGACCGGTTTTCCCGGTAATCCGTATTTGCA (site TGAGGACCTTG)”, the “recombinant UMI read abundance (log10)” value was 0.
In the case of “TGAGTTTCATGGACCGGTTTTCCCGGTAATCCGTATTTGAG (site TGAGTTTCTCT)”, the “recombinant UMI read abundance (log10)” value is reported as 1.89.
With “TGATAGACATGGACCGGTTTTCCCGGTAATCCGTATTTGGA (site TGATAGACTTC)” the “recombinant UMI read abundance (log10)” value was 0.865.
For “TGATCAACATGGACCGGTTTTCCCGGTAATCCGTATTTGCT (site CGATCATCTAG)”, the “recombinant UMI read abundance (log10)” value was 0.
In the case of “TGATCAACATGGACCGGTTTTCCCGGTAATCCGTATTTGCT (site TGATCAACTAG)”, the “recombinant UMI read abundance (log10)” value is reported as 0.879.
In the case of “TGATCATCATGGACCGGTTTTCCCGGTAATCCGTATTTGCT (site AGATCATCTAG)”, the “recombinant UMI read abundance (log10)” value is reported as 1.56.
With “TGATCATCATGGACCGGTTTTCCCGGTAATCCGTATTTGCT (site CGATCATCTAG)” the “recombinant UMI read abundance (log10)” value was 1.63.
In the case of “TGATCATCATGGACCGGTTTTCCCGGTAATCCGTATTTGCT (site GGATCATCTAG)”, the “recombinant UMI read abundance (log10)” value is reported as 1.02.
In the case of “TGATCATCATGGACCGGTTTTCCCGGTAATCCGTATTTGCT (site TGATCATCTAG)”, the “recombinant UMI read abundance (log10)” value is reported as 0.945.
In the case of “TGATCCCCATGGACCGGTTTTCCCGGTAATCCGTATTTGTA (site TGATCCCCTTA)”, the “recombinant UMI read abundance (log10)” value is reported as 0.674.
In the case of “TGATCCCCATGGACCGGTTTTCCCGGTAATCCGTATTTGTA (site TGCTCCCCTTA)”, the “recombinant UMI read abundance (log10)” value is reported as 0.195.
With “TGATCCCCATGGACCGGTTTTCCCGGTAATCCGTATTTGTA (site TGGTCCCCTTA)” the “recombinant UMI read abundance (log10)” value was 0.00213.
In the case of “TGATCCCCATGGACCGGTTTTCCCGGTAATCCGTATTTGTA (site TGTTCCCCTTA)”, the “recombinant UMI read abundance (log10)” value is reported as 0.28.
With “TGATCCGCATGGACCGGTTTTCCCGGTAATCCGTATTTGCC (site TGATCCGCTGG)” the “recombinant UMI read abundance (log10)” value was 1.55.
In the case of “TGCAAACCATGGACCGGTTTTCCCGGTAATCCGTATTTGGG (site TGCAAACCTCC)”, the “recombinant UMI read abundance (log10)” value is reported as 0.00989.
In the case of “TGCAATCCATGGACCGGTTTTCCCGGTAATCCGTATTTGAA (site AGCAATCCTTT)”, the “recombinant UMI read abundance (log10)” value is reported as 0.00584.
With “TGCAATCCATGGACCGGTTTTCCCGGTAATCCGTATTTGAA (site CGCAATCCTTT)” the “recombinant UMI read abundance (log10)” value was 0.257.
In the case of “TGCAATCCATGGACCGGTTTTCCCGGTAATCCGTATTTGAA (site GGCAATCCTTT)”, the “recombinant UMI read abundance (log10)” value is reported as 0.0354.
In the case of “TGCAATCCATGGACCGGTTTTCCCGGTAATCCGTATTTGAA (site TGCAATCCTTT)”, the “recombinant UMI read abundance (log10)” value is reported as 1.16.
In the case of “TGCACATCATGGACCGGTTTTCCCGGTAATCCGTATTTGCC (site TGCACATCTGG)”, the “recombinant UMI read abundance (log10)” value is reported as 0.35.
For “TGCACCGCATGGACCGGTTTTCCCGGTAATCCGTATTTGCG (site TACACCGCTCG)”, the “recombinant UMI read abundance (log10)” value was 0.0133.
For “TGCACCGCATGGACCGGTTTTCCCGGTAATCCGTATTTGCG (site TCCACCGCTCG)”, the “recombinant UMI read abundance (log10)” value was 0.0173.
With “TGCACCGCATGGACCGGTTTTCCCGGTAATCCGTATTTGCG (site TGCACCGCTCG)” the “recombinant UMI read abundance (log10)” value was 0.0216.
In the case of “TGCACCGCATGGACCGGTTTTCCCGGTAATCCGTATTTGCG (site TTCACCGCTCG)”, the “recombinant UMI read abundance (log10)” value is reported as 0.00682.
